Data taken from patent EP4741392A1, “1H-PYRAZOLO[4,3-C]PYRIDINE COMPOUND, AND COMPOSITION THEREOF AND USE THEREOF” (Shenzhen TargetRx Co., Ltd., priority 2023, dated 2025).

Columns and labels:
Format in all cases: biochemical
[1] = biological target: T1, BTK kinase (Homo sapiens, UniProt Q06187); assay: Kinase activity inhibition assay (HTRF TK Kit)
T1 construct: purchased Invitrogen PV3587
Outline: (§1)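 Cmpd + substrate/ATP + kinase, assembled on ice, shaken 30 s, RT reaction; detection mix (SA-XL665 + TK Ab-cryptate) 1 h RT; 665/620 ratio. Controls: no-kinase blank, kinase + 1% DMSO. IC50 via 4-parameter logistic fit of % inhibition vs log[cmpd].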

[2] = biological target: T2, BTK T474I (Homo sapiens, UniProt Q06187, T474I); assay: Kinase activity inhibition assay (HTRF TK Kit)
T2 construct: purchased SignalChem B10-12HH
Outline: as §1

[3] = biological target: T3, BTK C481S (Homo sapiens, UniProt Q06187, C481S); assay: Kinase activity inhibition assay (HTRF TK Kit)
T3 construct: purchased Carna 08-547
Outline: as §1

[4] = biological target: T4, ITK (Homo sapiens, UniProt Q08881); assay: Kinase activity inhibition assay (HTRF TK Kit), selectivity
T4 construct: purchased Carna 08-181
T4 sequence (Q08881 1-620): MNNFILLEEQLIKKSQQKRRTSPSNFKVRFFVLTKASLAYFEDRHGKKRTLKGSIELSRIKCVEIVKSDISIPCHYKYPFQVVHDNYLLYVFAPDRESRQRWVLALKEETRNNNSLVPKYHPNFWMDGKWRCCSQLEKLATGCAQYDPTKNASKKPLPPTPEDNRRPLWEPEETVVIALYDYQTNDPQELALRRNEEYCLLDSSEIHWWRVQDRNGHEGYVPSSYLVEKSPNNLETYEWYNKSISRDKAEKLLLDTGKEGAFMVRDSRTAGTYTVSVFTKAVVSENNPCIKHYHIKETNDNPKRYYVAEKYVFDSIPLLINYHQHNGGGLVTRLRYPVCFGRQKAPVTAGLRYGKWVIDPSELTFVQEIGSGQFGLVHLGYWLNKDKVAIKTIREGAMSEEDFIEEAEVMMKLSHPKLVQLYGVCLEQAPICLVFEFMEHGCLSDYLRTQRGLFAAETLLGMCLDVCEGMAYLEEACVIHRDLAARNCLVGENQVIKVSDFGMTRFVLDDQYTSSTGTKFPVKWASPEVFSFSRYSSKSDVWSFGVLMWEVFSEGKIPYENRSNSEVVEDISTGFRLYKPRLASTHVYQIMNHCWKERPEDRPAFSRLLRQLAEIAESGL
Outline: as §1

[5] = biological target: T5, EGFR (Homo sapiens, UniProt P00533); assay: as above
T5 construct: purchased Carna 08-115
Outline: as §1

[6] = biological target: T6, TEC (Homo sapiens, UniProt P42680); assay: as above
T6 construct: purchased Carna 08-182
T6 sequence (P42680 1-631): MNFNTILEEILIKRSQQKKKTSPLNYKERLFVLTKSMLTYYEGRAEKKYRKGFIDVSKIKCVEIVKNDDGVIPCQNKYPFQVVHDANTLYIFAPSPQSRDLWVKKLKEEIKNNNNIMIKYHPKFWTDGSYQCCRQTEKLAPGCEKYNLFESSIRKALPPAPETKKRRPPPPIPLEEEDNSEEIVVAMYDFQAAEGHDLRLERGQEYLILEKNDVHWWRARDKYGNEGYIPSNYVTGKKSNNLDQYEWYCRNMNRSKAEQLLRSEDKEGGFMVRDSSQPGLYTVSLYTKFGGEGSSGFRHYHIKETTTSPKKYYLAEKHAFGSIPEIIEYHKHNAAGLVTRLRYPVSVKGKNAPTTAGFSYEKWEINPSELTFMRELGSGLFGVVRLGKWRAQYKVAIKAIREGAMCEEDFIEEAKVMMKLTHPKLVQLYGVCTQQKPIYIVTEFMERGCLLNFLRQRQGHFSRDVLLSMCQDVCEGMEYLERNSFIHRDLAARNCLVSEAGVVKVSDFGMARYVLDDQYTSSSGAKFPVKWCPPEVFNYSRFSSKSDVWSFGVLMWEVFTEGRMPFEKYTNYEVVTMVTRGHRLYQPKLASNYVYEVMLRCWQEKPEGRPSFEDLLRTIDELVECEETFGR
Outline: as §1

T2 sequence (Q06187 whole entry T474I): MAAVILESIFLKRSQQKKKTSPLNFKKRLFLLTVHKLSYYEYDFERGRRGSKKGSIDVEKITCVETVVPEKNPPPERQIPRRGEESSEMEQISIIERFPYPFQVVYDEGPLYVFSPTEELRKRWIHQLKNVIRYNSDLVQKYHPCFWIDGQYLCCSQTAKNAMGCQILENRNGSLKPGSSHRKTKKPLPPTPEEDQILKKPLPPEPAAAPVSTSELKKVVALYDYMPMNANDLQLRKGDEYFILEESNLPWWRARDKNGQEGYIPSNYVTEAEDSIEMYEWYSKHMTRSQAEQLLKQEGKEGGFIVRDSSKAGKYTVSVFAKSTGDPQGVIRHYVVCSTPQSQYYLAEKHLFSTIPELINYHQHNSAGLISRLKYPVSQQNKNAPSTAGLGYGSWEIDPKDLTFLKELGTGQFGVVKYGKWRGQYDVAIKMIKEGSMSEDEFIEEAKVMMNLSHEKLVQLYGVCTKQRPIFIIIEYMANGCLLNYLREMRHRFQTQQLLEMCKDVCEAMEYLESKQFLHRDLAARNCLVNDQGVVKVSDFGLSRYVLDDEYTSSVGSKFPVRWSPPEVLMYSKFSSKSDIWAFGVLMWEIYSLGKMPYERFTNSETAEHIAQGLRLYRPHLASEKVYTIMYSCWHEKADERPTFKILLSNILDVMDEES
T1 sequence (Q06187 whole entry): as the sequence (Q06187 whole entry T474I) above, with I474T counted along it
T3 sequence (Q06187 whole entry C481S): as the sequence (Q06187 whole entry T474I) above, with I474T, C481S counted along it

| IC50 [1] [nM] | IC50 [2] [nM] | IC50 [3] [nM] | IC50 [4] [nM] | IC50 [5] [nM] | IC50 [6] [nM] | Compound |
| --- | --- | --- | --- | --- | --- | --- |
| 5 to 50 | 50 to 500 | 5 to 50 | > 500 | 50 to 500 | > 500 | COc1ccc(F)cc1C(=O)NCc1ccc(-c2ncc(-c3ccc4c(n3)nc3n4C(C)COC3)c3[nH]nc(N)c23)cc1 (stereo not drawn) [Example 103, N-(4-(3-amino-7-(6-methyl-6,7-dihydro-9H-pyrido[2',3':4,5]imidazo[2,1-c][1,4]oxazin-2-yl)-1H-pyrazolo[4,3-c]pyridin-4-yl)benzyl)-5-fluoro-2-methoxybenzamide] |
| 5 to 50 | > 500 | 50 to 500 | > 500 | > 500 | > 500 | COc1ccc(F)cc1C(=O)NCc1ccc(-c2ncc(-c3cccnc3)c3[nH]nc(N)c23)cc1 [Example 105, N-(4-(3-amino-7-(pyridin-3-yl)-1H-pyrazolo[4,3-c]pyridin-4-yl)benzyl)-5-fluoro-2-methoxybenzamide] |
| 50 to 500 | > 500 | 50 to 500 | > 500 | > 500 | > 500 | COc1ccc(F)cc1C(=O)NCc1ccc(-c2ncc(-c3ccncc3)c3[nH]nc(N)c23)cc1 [Example 106, N-(4-(3-amino-7-(pyridin-4-yl)-1H-pyrazolo[4,3-c]pyridin-4-yl)benzyl)-5-fluoro-2-methoxybenzamide] |
| 5 to 50 | 50 to 500 | 1 to 5 | > 500 | 50 to 500 | 50 to 500 | COc1ccc(F)cc1C(=O)NCc1ccc(-c2nc(C3CCOCC3)cc3[nH]nc(N)c23)cc1 [Example 115, N-(4-(3-amino-6-(tetrahydro-2H-pyran-4-yl)-1H-pyrazolo[4,3-c]pyridin-4-yl)benzyl)-5-fluoro-2-methoxybenzamide] |
| 1 to 5 | 50 to 500 | 1 to 5 | > 500 | 5 to 50 | 50 to 500 | COc1ccc(F)cc1C(=O)NCc1ccc(-c2nc([C@H]3CC[C@H](CO)CC3)cc3[nH]nc(N)c23)cc1 [Example 117, N-(4-(3-amino-6-((1r,4r)-4-(hydroxymethyl)cyclohexyl)-1H-pyrazolo[4,3-c]pyridin-4-yl)benzyl)-5-fluoro-2-methoxybenzamide] |
| ≤ 1 | 5 to 50 | ≤ 1 | 50 to 500 | 5 to 50 | 5 to 50 | N-(4-(3-amino-7-(1-(difluoromethyl)-1H-pyrazol-3-yl)-1H-pyrazolo[4,3-c]pyridin-4-yl)benzyl)-5-fluoro-2-methoxybenzamide [Example 29] |
